# Results published in patent US20230321123A1, “INHIBITORS OF PSEUDOMONAS AERUGINOSA VIRULENCE FACTOR LasB” (Helmholtz-Zentrum Für Infektionsforschung GmbH, priority 2020, published 2023).
# Like-named read-outs stand apart in the source and are kept apart here.
# Assays:
# MMP-3 = MMP-3 (Homo sapiens, UniProt P08254); experiment: Selectivity against human off-targets: MMP-3; type: biochemical; conditions: read-out: Inhibition [%] MMP-3
# Source text: (§1) The inhibition of zinc-containing human enzymes is described frequently for LasB inhibitors and poses a serious difficulty in the development of selective compounds. Particularly, the inhibition of matrix metalloproteases (MMPs) should be avoided. To further investigate this issue, three derivatives (the compounds of examples 1, 5 and 8) have been tested for their selectivity against several human off-targets, including six MMPs, ADAM17 (TACE), HDAC-3 and HDAC-8 (Table 4). The selectivity of the compounds is particularly high for MMPs and HDACs, whereas the inhibition of ADAM17 was considerably stronger.
# MMP-1 = biological target: T1, MMP-1 (Homo sapiens, UniProt P03956); experiment: Selectivity against human off-targets: MMP-1; type: biochemical; conditions: read-out: Inhibition [%] MMP-1
# T1 sequence (P03956 100-469): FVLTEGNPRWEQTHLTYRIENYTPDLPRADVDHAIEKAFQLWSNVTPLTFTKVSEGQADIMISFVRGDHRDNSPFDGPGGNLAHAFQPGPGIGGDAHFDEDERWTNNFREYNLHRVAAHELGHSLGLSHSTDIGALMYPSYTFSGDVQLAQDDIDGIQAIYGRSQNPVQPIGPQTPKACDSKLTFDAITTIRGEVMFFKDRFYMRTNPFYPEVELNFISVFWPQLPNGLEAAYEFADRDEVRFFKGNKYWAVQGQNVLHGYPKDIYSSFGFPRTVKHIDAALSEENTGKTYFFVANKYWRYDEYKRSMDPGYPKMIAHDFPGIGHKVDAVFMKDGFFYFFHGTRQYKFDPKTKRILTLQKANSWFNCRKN
# Source text: as §1
# MMP-2 = biological target: T2, MMP-2 (Homo sapiens, UniProt P08253); experiment: Selectivity against human off-targets: MMP-2; type: biochemical; conditions: read-out: Inhibition [%] MMP-2
# T2 sequence (P08253 110-660): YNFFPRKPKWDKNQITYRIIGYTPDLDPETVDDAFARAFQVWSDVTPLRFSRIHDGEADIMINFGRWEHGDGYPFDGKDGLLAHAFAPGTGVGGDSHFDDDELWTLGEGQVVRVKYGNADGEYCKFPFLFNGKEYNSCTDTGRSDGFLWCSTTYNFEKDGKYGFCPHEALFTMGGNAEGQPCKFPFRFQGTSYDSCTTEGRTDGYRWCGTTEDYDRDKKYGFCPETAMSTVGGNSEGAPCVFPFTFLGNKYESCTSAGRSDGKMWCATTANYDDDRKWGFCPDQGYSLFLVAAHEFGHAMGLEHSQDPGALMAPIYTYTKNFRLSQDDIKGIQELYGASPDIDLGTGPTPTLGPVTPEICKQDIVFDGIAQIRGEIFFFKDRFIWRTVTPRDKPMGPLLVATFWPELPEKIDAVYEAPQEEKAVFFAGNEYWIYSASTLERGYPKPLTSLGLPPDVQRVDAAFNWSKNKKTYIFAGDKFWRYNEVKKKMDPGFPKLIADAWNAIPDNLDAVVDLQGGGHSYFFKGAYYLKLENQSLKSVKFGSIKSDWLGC
# Source text: as §1
# Cytotoxicity HepG2 = type: cell-based; conditions: human
# Method: (§2) The compounds of examples 1 and 5 were not toxic against the cell lines HepG2, HEK293 and A549 (Table 5). Additionally, the inhibitory effect against P. aeruginosa PA14 was evaluated to exclude an antibacterial effect of the compounds of the present invention. This is important as it was the aim to target virulence and not viability of the bacteria. […]
# LasB = LasB (Pseudomonas aeruginosa, UniProt Q02RJ6); experiment: biochemical; set-up: species or system P. aeruginosa
# LasB, sequence (Q02RJ6 198-498): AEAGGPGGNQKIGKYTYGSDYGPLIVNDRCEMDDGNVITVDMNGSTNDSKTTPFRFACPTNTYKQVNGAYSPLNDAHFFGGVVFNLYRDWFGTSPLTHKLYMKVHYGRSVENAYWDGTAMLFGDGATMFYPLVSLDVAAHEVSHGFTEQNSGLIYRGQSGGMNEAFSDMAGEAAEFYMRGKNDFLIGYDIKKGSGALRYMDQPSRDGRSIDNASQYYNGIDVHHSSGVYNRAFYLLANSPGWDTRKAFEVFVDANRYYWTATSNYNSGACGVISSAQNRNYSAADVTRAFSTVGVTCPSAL
# P. aeruginosa PA14 = experiment: PA14 inhibition (MIC, antibacterial effect); type: cell-based
# Method: as §2
# Cytotoxicity HEK293 = type: cell-based; conditions: human
# Method: as §2
# ADAM17 (TACE) = ADAM17 (TACE) (Homo sapiens, UniProt P78536); experiment: Selectivity against human off-targets: ADAM17 (TACE); type: biochemical
# ADAM17 (TACE), sequence (P78536 215-824): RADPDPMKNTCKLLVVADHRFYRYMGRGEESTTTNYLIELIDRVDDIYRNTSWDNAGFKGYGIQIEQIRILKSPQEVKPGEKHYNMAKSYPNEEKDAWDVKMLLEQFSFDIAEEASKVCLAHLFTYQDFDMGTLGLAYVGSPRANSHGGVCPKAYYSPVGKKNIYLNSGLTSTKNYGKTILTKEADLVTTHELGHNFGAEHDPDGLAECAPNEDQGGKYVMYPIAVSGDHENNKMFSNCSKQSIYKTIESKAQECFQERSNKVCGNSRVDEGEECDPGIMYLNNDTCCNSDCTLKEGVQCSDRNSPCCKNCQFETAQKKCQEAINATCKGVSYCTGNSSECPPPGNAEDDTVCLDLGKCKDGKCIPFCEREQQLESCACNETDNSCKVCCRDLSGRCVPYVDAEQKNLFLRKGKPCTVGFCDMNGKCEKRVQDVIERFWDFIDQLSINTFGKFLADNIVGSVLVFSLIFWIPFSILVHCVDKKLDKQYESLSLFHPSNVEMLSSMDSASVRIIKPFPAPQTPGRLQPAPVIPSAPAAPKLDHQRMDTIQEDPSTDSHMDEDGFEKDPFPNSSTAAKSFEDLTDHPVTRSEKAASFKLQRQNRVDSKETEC
# Cytotoxicity A549 = type: cell-based; conditions: human
# Method: as §2
# MMP-8 = MMP-8 (Homo sapiens, UniProt P22894); experiment: Selectivity against human off-targets: MMP-8; type: biochemical; conditions: read-out: Inhibition [%] MMP-8
# MMP-8, sequence (P22894 101-467): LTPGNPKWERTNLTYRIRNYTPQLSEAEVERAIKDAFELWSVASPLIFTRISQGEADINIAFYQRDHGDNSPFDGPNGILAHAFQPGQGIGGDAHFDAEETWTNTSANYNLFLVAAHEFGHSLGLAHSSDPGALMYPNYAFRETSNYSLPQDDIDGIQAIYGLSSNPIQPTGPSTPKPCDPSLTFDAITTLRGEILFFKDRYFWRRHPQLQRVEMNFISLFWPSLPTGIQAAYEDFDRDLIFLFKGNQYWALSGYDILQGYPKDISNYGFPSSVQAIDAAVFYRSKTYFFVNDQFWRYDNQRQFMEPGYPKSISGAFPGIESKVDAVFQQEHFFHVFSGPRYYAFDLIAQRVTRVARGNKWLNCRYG
# Source text: as §1
# MMP-7 = biological target: T3, MMP-7 (Homo sapiens, UniProt P09237); experiment: Selectivity against human off-targets: MMP-7; type: biochemical; conditions: read-out: Inhibition [%] MMP-7
# T3 sequence (P09237 95-267): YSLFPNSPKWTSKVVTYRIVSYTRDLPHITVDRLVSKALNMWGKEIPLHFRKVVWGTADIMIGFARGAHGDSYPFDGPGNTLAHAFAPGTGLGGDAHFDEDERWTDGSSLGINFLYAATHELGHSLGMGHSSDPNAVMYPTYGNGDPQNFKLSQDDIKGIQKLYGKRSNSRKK
# Source text: as §1
# HDAC-8 = biological target: T4, HDAC-8 (Homo sapiens, UniProt Q9BY41); experiment: Selectivity against human off-targets: HDAC-8; type: biochemical
# T4 sequence (Q9BY41 1-377): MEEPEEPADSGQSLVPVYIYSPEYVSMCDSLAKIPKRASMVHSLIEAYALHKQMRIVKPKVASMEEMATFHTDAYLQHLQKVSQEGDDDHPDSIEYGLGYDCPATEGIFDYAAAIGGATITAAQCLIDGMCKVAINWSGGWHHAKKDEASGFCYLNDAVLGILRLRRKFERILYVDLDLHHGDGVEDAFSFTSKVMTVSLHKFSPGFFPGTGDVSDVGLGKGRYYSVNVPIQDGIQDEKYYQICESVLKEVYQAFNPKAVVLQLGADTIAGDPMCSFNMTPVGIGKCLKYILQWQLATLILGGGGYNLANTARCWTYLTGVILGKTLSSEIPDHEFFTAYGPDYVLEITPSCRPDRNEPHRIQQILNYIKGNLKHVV
# Source text: as §1
# HDAC-3 = HDAC-3 (Homo sapiens, UniProt O15379); experiment: Selectivity against human off-targets: HDAC-3; type: biochemical
# HDAC-3, sequence (O15379 whole entry): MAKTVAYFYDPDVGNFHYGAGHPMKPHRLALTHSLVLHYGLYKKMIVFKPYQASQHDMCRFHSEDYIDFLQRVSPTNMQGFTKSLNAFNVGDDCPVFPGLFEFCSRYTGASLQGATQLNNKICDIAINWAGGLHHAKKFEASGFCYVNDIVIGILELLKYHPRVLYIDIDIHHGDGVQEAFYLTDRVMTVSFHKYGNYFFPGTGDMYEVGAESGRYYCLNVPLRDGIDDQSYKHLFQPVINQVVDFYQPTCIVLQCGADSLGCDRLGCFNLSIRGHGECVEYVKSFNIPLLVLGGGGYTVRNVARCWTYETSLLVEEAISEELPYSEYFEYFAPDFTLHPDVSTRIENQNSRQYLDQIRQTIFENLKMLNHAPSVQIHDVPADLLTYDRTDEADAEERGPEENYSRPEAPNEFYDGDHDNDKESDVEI
# HDAC-3, sequence (Q9Y618 395-489 partner limits assumed): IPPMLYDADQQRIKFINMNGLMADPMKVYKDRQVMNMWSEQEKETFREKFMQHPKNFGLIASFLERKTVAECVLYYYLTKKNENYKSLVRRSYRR
# Source text: as §1
# MMP-14 = MMP-14 (Homo sapiens, UniProt P50281); experiment: Selectivity against human off-targets: MMP-14; type: biochemical; conditions: read-out: Inhibition [%] MMP-14
# Source text: as §1
# [1] = Pseudomonas aeruginosa, PA14; read-out: MIC PA14
# MMP-3, sequence (P08254 100-477): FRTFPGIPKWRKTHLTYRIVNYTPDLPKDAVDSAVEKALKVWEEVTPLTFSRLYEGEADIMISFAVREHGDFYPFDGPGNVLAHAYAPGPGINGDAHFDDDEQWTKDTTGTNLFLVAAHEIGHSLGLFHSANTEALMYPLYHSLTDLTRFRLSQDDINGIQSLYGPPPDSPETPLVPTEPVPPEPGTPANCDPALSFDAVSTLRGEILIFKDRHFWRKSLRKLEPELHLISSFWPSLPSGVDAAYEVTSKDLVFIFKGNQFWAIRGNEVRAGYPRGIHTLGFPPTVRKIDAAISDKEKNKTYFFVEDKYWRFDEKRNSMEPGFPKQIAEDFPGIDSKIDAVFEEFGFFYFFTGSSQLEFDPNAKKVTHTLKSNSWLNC
SMILES,inhibition at 100 µM (MMP-3; at 100 μM) [%],inhibition at 100 µM (MMP-1; at 100 μM) [%],inhibition at 100 µM (MMP-2; at 100 μM) [%],IC50 (Cytotoxicity HepG2; HepG2) [µM],IC50 (LasB; IC50 against LasB) [µM],MIC (P. aeruginosa PA14; [1]) [µM],IC50 (Cytotoxicity HEK293; HEK293) [µM],IC50 (ADAM17 (TACE); read-out: IC50 ADAM17 (TACE)) [µM],IC50 (Cytotoxicity A549; A549) [µM],other results
"CC(C)CC(C(=O)N[C@H](C(=O)Nc1ccc(Cl)c(Cl)c1)C(C)C)P(=O)(O)O (mixture of isomers) [Example 152, (1-(((S)-1-((3,4-Dichlorophenyl)amino)-3-methyl-1-oxobutan-2-yl)amino)-4-methyl-1-oxopentan-2-yl)phosphonic acid]",< 10,13 ± 1,7 ± 9,> 100,0.0051 ± 0.0002,> 100,> 100,> 100,> 100,
"CC(C)CC(C(=O)N[C@H](c1nc2cc(Oc3ccccc3)ccc2[nH]1)C(C)C)P(=O)(O)O (mixture of isomers) [Example 172, (4-Methyl-1-(((S)-2-methyl-1-(5-phenoxy-1H-benzo[d]imidazol-2-yl)propyl)amino)-1-oxopentan-2-yl)phosphonic acid]",18 ± 5,18 ± 4,12 ± 2,> 100,,> 100,> 100,,> 100,"IC50 (LasB; IC50 against LasB (Table 16), heteropentacycles and benzannulated heteropentacycles): 12 ± 1 µM; inhibition at 100 µM (ADAM17 (TACE); at 100 μM): < 10%"
"O=C(Nc1ccccc1)C(S)Cc1ccccc1 (racemic) [Example 1, 2-Mercapto-N,3-diphenylpropanamide]",,,,> 100,1.2 ± 0.1,,> 100,2.2 ± 0.1,> 100,"inhibition at 100 µM (MMP-3): < 10%; inhibition at 100 µM (MMP-8): 34 ± 11%; inhibition at 100 µM (MMP-1): < 10%; inhibition at 100 µM (MMP-2): < 10%; MIC (P. aeruginosa PA14; Pseudomonas aeruginosa, PA14, read-out: MIC PA14): > 100 µM; inhibition at 100 µM (MMP-7): < 10%; IC50 (HDAC-8; read-out: IC50 HDAC-8): > 100 µM; IC50 (HDAC-3; read-out: IC50 HDAC-3): > 100 µM; inhibition at 100 µM (MMP-14): < 10%"
O=C(Nc1ccc(O)cc1)C(S)Cc1ccccc1 (stereo not drawn) [Example 5],,,,> 100,0.59 ± 0.04,,> 100,2.3 ± 1.4,> 100,inhibition at 100 µM (MMP-8; at 100 μM): 19 ± 4%
Cc1ccc(NC(=O)C(S)Cc2ccccc2)cc1 (stereo not drawn) [Example 8],,,,,,,,4.8 ± 1.2,,IC50 (LasB; read-out: IC50 against LasB): 0.48 ± 0.04 µM
"Cc1ccc(NC(=O)C(CC(C)C)P(=O)(O)O)cc1 (stereo not drawn) [Example 63, (4-Methyl-1-oxo-1-(p-tolylamino)pentan-2-yl)phosphonic acid]",< 10,< 10,< 10,,0.051 ± 0.007,> 100,,,,inhibition at 100 µM (MMP-8; at 100 μM): 10%; IC50 (Cytotoxicity HepG2; HepG2 cells): > 100 µM; IC50 (Cytotoxicity HEK293; HEK293 cells): > 100 µM; inhibition at 100 µM (MMP-7; at 100 μM): < 10%; IC50 (ADAM17 (TACE)): > 100 µM; IC50 (HDAC-8): > 100 µM; IC50 (HDAC-3): > 100 µM; inhibition at 100 µM (MMP-14; at 100 μM): 12 ± 7%; IC50 (Cytotoxicity A549; A549 cells): > 100 µM
CC(C)CC(C(=O)Nc1ccc(-c2ccc(Cl)cc2)nc1)P(=O)(O)O (stereo not drawn) [Example 92],< 10,< 10,18,,,> 100,,,,IC50 (Cytotoxicity HepG2; HepG2 cells): > 100 µM; IC50 (Cytotoxicity HEK293; HEK293 cells): > 100 µM; IC50 (Cytotoxicity A549; A549 cells): > 100 µM
"CC(C)CC(C(=O)Nc1ccc(NS(=O)(=O)c2ccc(Cl)c(Cl)c2)cc1)P(=O)(O)O (stereo not drawn) [Example 108, (1-((4-((3,4-Dichlorophenyl)sulfonamido)phenyl)amino)-4-methyl-1-oxopentan-2-yl)phosphonic acid]",< 10,12 ± 1,< 10,,,> 100,,,,IC50 (Cytotoxicity HepG2; HepG2 cells): > 100 µM; IC50 (Cytotoxicity HEK293; HEK293 cells): > 100 µM; IC50 (Cytotoxicity A549; A549 cells): > 100 µM
CC(C)CC(C(=O)N1CCC[C@H]1C(=O)Nc1ccc(Cl)c(Cl)c1)P(=O)(O)O (stereo partly drawn) [Example 166],,,,,2.54 ± 0.069,,,,,
CC(C)CC(C(=O)N[C@@H](C(=O)Nc1ccc(Cl)c(Cl)c1)C(C)C)P(=O)(O)O (stereo partly drawn) [Example 167],,,,,0.011,,,,,
CC(C)CC(C(=O)N[C@H](CC(=O)Nc1ccc(Cl)c(Cl)c1)C(C)C)P(=O)(O)O (stereo partly drawn) [Example 168],,,,,1.76 ± 0.03,,,,,
CC(C)CC(C(=O)N[C@@H](CC1CCOCC1)C(=O)Nc1ccc(Cl)c(Cl)c1)P(=O)(O)O (stereo partly drawn) [Example 169],,,,,0.378 ± 0.008,,,,,
"Cc1ccc(NC(=O)C(CC(C)C)C(=O)NO)cc1 (stereo not drawn) [Example 173, N^1-hydroxy-2-isobutyl-N^3-(p-tolyl)malonamide]",16 ± 7,29 ± 3,26 ± 2,> 100,0.014 ± 0.001,> 100,> 100,16 ± 2,> 100,IC50 (HDAC-8; read-out: IC50 HDAC-8): > 100 µM; IC50 (HDAC-3; read-out: IC50 HDAC-3): > 100 µM
"Cc1ccc(NC(=O)C(CC(C)C)n2ccnn2)cc1 (stereo not drawn) [Example 174, 4-Methyl-N-(p-tolyl)-2-(1H-1,2,3-triazol-1-yl)pentanamide]",-3 ± 17,,,> 100,2.8 ± 0.1,> 100,> 100,> 100,> 100,IC50 (HDAC-8; read-out: IC50 HDAC-8): > 100 µM; IC50 (HDAC-3; read-out: IC50 HDAC-3): > 100 µM
CC(C)CC(C(=O)Nc1ccc(Cl)c(Cl)c1)n1ccnn1 (stereo not drawn) [Example 175],,,,,4.3 ± 0.2,,,,,
CC(C)CC(C(=O)Nc1ccc(OCc2ccc(Cl)c(Cl)c2)cc1)n1ccnn1 (stereo not drawn) [Example 176],,,,,45.6,,,,,
"Cc1ccc(NC(=O)C(CC(C)C)n2nccn2)cc1 (stereo not drawn) [Example 177, 4-Methyl-N-(p-tolyl)-2-(2H-1,2,3-triazol-2-yl)pentanamide]",,7 ± 4,,> 100,5.3 ± 0.2,> 100,> 100,> 100,> 100,IC50 (HDAC-8; read-out: IC50 HDAC-8): > 100 µM; IC50 (HDAC-3; read-out: IC50 HDAC-3): > 100 µM
CC(C)CC(C(=O)Nc1ccc(Cl)c(Cl)c1)n1nccn1 (stereo not drawn) [Example 178],,,,,5.5 ± 0.2,,,,,
CC(C)CC(C(=O)Nc1ccc(OCc2ccc(Cl)c(Cl)c2)cc1)n1nccn1 (stereo not drawn) [Example 179],,,,,30,,,,,
